Here are results for two compounds from PMC12382740, “In Vitro and In Vivo Characterization of Novel Cathelicidin-Based Peptides with Antimicrobial Activity Against Pseudomonas aeruginosa” (Antibiotics, 2025).

Like-named read-outs stand apart in the source and are kept apart here. Square brackets hold non-standard residues; d marks the D form. Peptide text beside a SMILES is read from it.

Assay [1] has as its system P. aeruginosa strain panel. Format: cell-based, Pseudomonas aeruginosa. The method in brief:
(§1)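 Broth microdilution MIC based on CLSI guidance, peptides tested in AST broth in polypropylene round-bottom plates to limit peptide adsorption; colistin tested in cation-adjusted Mueller-Hinton broth per CLSI-EUCAST polymyxin recommendations with E. coli 13846 (mcr-1) and P. aeruginosa ATCC 27853 as QC. Three biological and technical replicates.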

Assay [2] concerns P. aeruginosa Strain ATCC 121110. The class given is cell-based, Pseudomonas aeruginosa. The method in brief: as §1
The test system of assay [3] is P. aeruginosa Strain 121007. The class given is cell-based, Pseudomonas aeruginosa. An outline of the steps:
as §1

Assay [4] has as its system P. aeruginosa R2 and 121110 strains. The assay is described as follows: Transmission electron microscopy of treated bacteria. The class given is cell-based, Pseudomonas aeruginosa. The note with it: 4 h incubation at 4× MIC. How it is done: Bacterial strains P. aeruginosa R2 and 121110 under treatment with CAP-18, CAP-18_31, D-CAP-18, and D-CAP-18_31 were chosen for TEM visualization. A total of 5 mL AST broth cultures were prepared in 50 mL Falcon tubes and inoculated with single colonies grown in Columbia Agar incubated at 37 °C. Liquid cultures were then diluted 1:100 in fresh AST broth and incubated at 37 °C until OD 0.6 was reached. Cultures were then centrifuged 10 min at 3000× g at 4 °C, and supernatant was discarded and replaced by fresh AST. […] Results from TKC assays were used as a guidance to choose peptide concentrations and incubation times for TEM sample visualization. After incubation, tubes were centrifuged thrice for 15′ at 5000× g and 4 °C, substituting supernatant after each centrifugation by adding 10 mL PBS 1× to the pellet and resuspending. Supernatant was discarded after the final centrifugation step. Pellet was fixed by adding 1 mL of 2.5% glutaraldehyde + 2% paraformaldehyde in PBS 0.1 M at pH 7.4, and centrifuged 10′ at 5000× g and 4 °C. Supernatant was discarded 30 min after centrifugation and pellet was washed twice with 1 mL of fresh fixing solution. Samples were stored 4 °C O/N and processed by the Electronic Microscopy Unit, Medicine Faculty, University of Barcelona. University of Barcelona Microscopy Facilities.

In assay [5] the test system is P. aeruginosa ATCC 121110. The assay is described as follows: Time-kill kinetic assay. The class given is cell-based, Pseudomonas aeruginosa. How it is done: (§2) Timepoints to withdraw aliquots of liquid cultures for each peptide, concentration, and strain were established at the following: 0, 2, 4, 8, and 24 h after inoculation. McFarland 0.5 solutions (~1.5 × 10^8 CFU/mL) were prepared from single-picked colonies grown O/N at 37 °C in Columbia Agar plates. Thirteen mL Falcon tubes were used to prepare solutions containing 5 mL of total volume by adding the following: 1 mL of peptide solution at 5 times chosen assay concentration to test, 3.75 mL AST, and 0.25 mL of a 1:10 McFarland dilution in AST. Positive controls contained 4.75 mL AST and 0.25 mL of strain inoculum diluted in AST; negative controls only contained 5 mL of AST. After adding the inoculum into each tube and vortexing, a 150 µL aliquot was taken from each tube at timepoint 0 h. All tubes were then placed in a 37 °C shaker-incubator at 180 rpm. Likewise, for timepoints 2, 4, 8, and 24 h, a 150 µL aliquot was withdrawn at each time for each tube. Each of these aliquots was serially diluted in 1:10 ratio in PBS 1× and 20 µL of the serial dilutions were spread on LB agar plates and incubated O/N at 37 °C. […] grown in LB agar plates were counted. Bacterial concentration (CFU/mL) for each strain, timepoint, and peptide concentration tested was calculated. Bactericidal effect was considered when there was a decrease of at least 3 in log10 (CFU/mL) for each peptide concentration at a given timepoint against each bacterial strain studied. A detection limit of 50 CFU/mL was established, corresponding to 1.70 log10 (CFU/mL), as 20 µL of each direct aliquot sample was spread in LB agar plates. Three replicates were run per peptide and strain.

For assay [6], the system named is P. aeruginosa R2. The experiment in a line: Time-kill kinetic assay. The class given is cell-based, Pseudomonas aeruginosa. How it is done:
as §2

In assay [7] the test system is A549 cells. Format: cell-based, human. The note with it: for IC50: 24 h; for A549 IC50: 24 h treatment, XTT, value in brackets. How it is done: (§3) Cell viability assays were performed against HeLa and A549 cells. Cells were seeded in Corning 96-well microplates at 2 × 10^3 cells/well and 5 × 10^3 cells/well and incubated for 24 h at 37 °C. Then, cells were treated with peptides dissolved in Dulbecco’s Modified Eagle’s Medium for 24 h; peptide concentration range 0.1–100 µM. The peptide solution was then removed, and fresh medium was added to the cells. Finally, 50 µL of activated-XTT solution was added and incubated for 4 h at 37 °C. A PowerWave X reader (BioTek, Winooski, VT, USA) was used to measure absorbance at 450 nm. Cell viability was calculated through the ratio of the absorbance of peptide-treated cells over the absorbance of untreated cells. Triplicates were run for each experiment.

The test system of assay [8] is HeLa cells. The class given is cell-based, human. The note with it: 24 h. How it is done: as §3
[9] abbreviates: panel of 15 P. aeruginosa strains.
Setting [10] is: panel of 15 P. aeruginosa strains, value in brackets.
[11] abbreviates: Strain ATCC 121110, value in brackets.
The mark [12] stands for this setting: Strain 121007, value in brackets.

For “H-GLRKRLRKFRNKIKEKLKKIGQKIQGLLPKL-OH [CAP-18_31]”, the MIC50 in assay [1] (setting [9]) came to 2 µg/mL; in assay [1] (setting [10]), 0.5 µM; in assay [1] (strain panel), 2 µg/mL. Besides, the MIC90 in assay [1] (setting [9]) was found to be 16 µg/mL; in assay [1] (setting [10]), 4.3 µM. The MIC in assay [2] (Strain ATCC 121110) was determined as 0.5 µg/mL; in assay [2] (setting [11]), 0.1 µM; in assay [3] (Strain 121007), 8 µg/mL; in assay [3] (setting [12]), 2.1 µM. The “effect on cell morphology (TEM)” value in assay [4] is reported as “different stages of cellular damage”. The “effect after 24 h incubation” value is “total eradication of the bacterial growth” in assay [5] (strain ATCC 121110, 8× MIC); “bacterial regrowth” in assay [6] (strain R2, 4× MIC); “maintained the bactericidal effect after 24 h” in assay [6] (strain R2, 8× MIC). Further, the “incubation time to bactericidal effect (decrease of at least 3 log10 CFU/mL)” value in assay [6] (strain R2, 2× MIC) was determined as 8 h; in assay [6] (strain R2, 4× MIC), 4 h; in assay [6] (strain R2, 8× MIC), 4 h. The results for the half-inhibitory concentration (IC50) in assay [7] and in assay [8] were 1.31 µM and 13.1 µM, respectively. The “A549 IC50” value in assay [7] was found to be 4.89 µg/mL.
With `CC[C@@H](C)[C@@H](NC(=O)[C@@H](CCCCN)NC(=O)[C@@H](CCCCN)NC(=O)[C@@H](CC(C)C)NC(=O)[C@@H](CCCCN)NC(=O)[C@@H](CCC(=O)O)NC(=O)[C@@H](CCCCN)NC(=O)[C@H](NC(=O)[C@@H](CCCCN)NC(=O)[C@@H](CC(N)=O)NC(=O)[C@@H](CCCNC(=N)N)NC(=O)[C@@H](Cc1ccccc1)NC(=O)[C@@H](CCCCN)NC(=O)[C@@H](CCCNC(=N)N)NC(=O)[C@@H](CC(C)C)NC(=O)[C@@H](CCCNC(=N)N)NC(=O)[C@@H](CCCCN)NC(=O)[C@@H](CCCNC(=N)N)NC(=O)[C@@H](CC(C)C)NC(=O)CN)[C@H](C)CC)C(=O)NCC(=O)N[C@H](CCC(N)=O)C(=O)N[C@H](CCCCN)C(=O)N[C@@H](C(=O)N[C@H](CCC(N)=O)C(=O)NCC(=O)N[C@H](CC(C)C)C(=O)N[C@H](CC(C)C)C(=O)N1CCC[C@@H]1C(=O)N[C@H](CCCCN)C(=O)N[C@H](CC(C)C)C(=O)O)[C@H](C)CC` [D-CAP-18_31, Glrkrlrkfrnkikeklkkigqkiqgllpkl] (H-G[dL][dR][dK][dR][dL][dR][dK][dF][dR][dN][dK][dI][dK][dE][dK][dL][dK][dK][dI]G[dQ][dK][dI][dQ]G[dL][dL][dP][dK][dL]-OH), the MIC50 came out at 4 µg/mL in assay [1] (setting [9]) and 1.1 µM in assay [1] (setting [10]). The MIC90 in assay [1] (setting [9]) worked out at 16 µg/mL; in assay [1] (setting [10]), 4.3 µM; in assay [1] (strain panel), 16 µg/mL. For the same compound, the MIC in assay [2] (Strain ATCC 121110) came to 0.25 µg/mL; in assay [2] (setting [11]) it was 0.07 µM; in assay [3] (Strain 121007) it was 2 µg/mL; in assay [3] (setting [12]) it was 0.5 µM. In assay [4], the “effect on cell morphology (TEM)” value is reported as “different stages of cellular damage”. The “incubation time to 3 log reduction / bactericidal effect” value in assay [5] (strain ATCC 121110, 4× MIC) was 4 h; in assay [5] (strain ATCC 121110, 8× MIC) it was 4 h. Further, the “effect after 24 h incubation” value in assay [6] (strain R2, 4× MIC) was “maintained after 24 h”; in assay [6] (strain R2, 8× MIC), “maintained after 24 h”. In addition, the “incubation time to bactericidal effect (decrease of at least 3 log10 CFU/mL)” value in assay [6] (strain R2, 4× MIC) was 8 h; in assay [6] (strain R2, 8× MIC), 4 h. In addition, the results for the IC50 in assay [7] and in assay [8] were 12.3 µM and 6.16 µM, respectively. For the same compound, the “A549 IC50” value in assay [7] amounted to 45.94 µg/mL.
